Experimental data reported in US20230149374A1, “METHODS AND COMPOSITIONS FOR TREATING ATHEROSCLEROSIS” (Sanford Burnham Prebys Medical Discovery Institute, priority 2021, published 2023).

System: ApoE-deficient mice
Test: In vivo aortic calcification imaging, 18F-NaF μPET / μCT
Design: species or system mouse
Conditions: ApoE-deficient mice on HFD, 30 mg/kg/day in food from 10 to 25 weeks of age; control 6 out of 11
From the text: Four cohorts of mice were used in these studies (FIGS. 8A and 9A). Cohorts 1 and 2 were devoted to the in vivo and ex vivo characterization of TNAP-associated plaque calcification. 6-week-old ApoE-deficient male mice were received at the animal facility and placed in conventional cages with 5 mice per cage. Mice were maintained on a 12-hrs light-dark cycle (7:00 am-7:00 pm) and were supplied with food and water ad libitum. From 10 weeks of age, they were fed ad libitum with a high fat diet (HFD, D12108C, Research Diets, New Brunswick, USA) containing 40% fat (kcal) and 1.25% cholesterol (weight). In cohort 1, 8 mice were sacrificed every 2 weeks between weeks 17 to 31, for histological and molecular analyses. Total body weight was measured weekly after starting the HFD. The sacrifice was done after anesthesia with isoflurane and intracardiac blood puncture by CO2 inhalation. Tissues were harvested as described below. The abdominal aorta was used for quantitative polymerase chain reaction (PCR) analyses. […] Plaque calcification was analyzed at 25 weeks, and possible side effects of TNAP inhibition were explored in mice aged 31 weeks. […]
Mice were placed into a chamber connected to an isoflurane anesthesia unit. […] Images were analyzed using Inveon Research workplace (Siemens). The presence of atherosclerotic plaques was evaluated both in CT and PET images. […]

COc1ccc(Cl)cc1S(=O)(=O)Nc1cncc(C(N)=O)c1 [SBI-425]
mice having calcifications, in vivo 18F-NaF μPET and μCT: 0 out of 12
